≈ marks a conversion by molar mass, not a printed value.
Legend:
[1] = Heating agent in water solution in sealed pressure vessels at SAGD conditions (gas generation by decomposition); type: physicochemical
Procedure: For illustrative purposes, an experiment conducted to simulate the impact of a recovery process on selected preconditioning agents under reservoir conditions shall be described. […] In one such experiment, the preconditioning agent was citric acid which was dissolved in water to create the water solution.

[2] = cited from earlier work
[3] = 5.0 g agent and 50 milliliters water, three days at 205° C., SAGD conditions
[4] = 5 grams agent, 205° C., approx. 73 hours

O=C(O)C(=O)O [oxalic acid dihydrate]
carbon dioxide produced on conversion [1, 3]: 1.25 moles CO2/mole of oxalic acid dehydrate
methane produced on conversion [1, 3]: 0.56 moles/mole of oxalic acid dihydrate

CCCC(C)=O [MPK, methyl propyl ketone]
Solubility in Water at 20° C. [2]: 31 mg/mL (≈ 360 mM)

O=C(O)CC(O)(CC(=O)O)C(=O)O [Citric Acid, citric acid]
methane in headspace gas [1, 4]: approximately 1500 ppm
propane in headspace gas [1, 4]: ~300 ppm
CO2 yielded in headspace ([1]; approximately 5 grams agent (50 milliliters of 10% solution), 205° C., approx. 73 hours, approx. 990 psi): approximately 1.16 liters
carbon dioxide yield scaled ([1]; from 1 cubic meter of 10% solution): 23,200 liters

— patent US8235110B2, “Preconditioning an oilfield reservoir” (Gushor Inc., priority 2006, dated 2012)
